In patent US20240293345A1, “COMBINATIONS OF LOCAL ANESTHETICS FOR IMPROVED PAIN RELIEF” (priority 2021, published 2024):

Columns and labels:
[1] = given subcutaneously; cited from earlier work
[2] = Case studies: local anesthesia by injection to the mouth region before dental procedures; assay type: in vivo, human; conditions: for anesthetic effect of one local anesthetic alone: cases previously observed by the inventors; for local anesthetic effect / pain relief during dental procedures: patients with a history of poor pain relief after just one local anesthetic, injection to mouth region
From the text: The experiments and disclosures provided herein are based on 9 case studies performed on patients that had, or previously has had phenotype red hair. The inventors performed odontological procedures on the patients and compared pain relief to prior experiences with local anesthetics.
9 patients with a history of poor pain relief after administration of just one local anesthetic received a combination of lidocaine and prilocaine before various dental procedures where performed. The patients pain sensation was the noted in case studies kept at the inventor's clinic.
Commercially available Xylocain Dental Adrenaline (lidocaine HCL 20 mg/mL with epinephrine 12.5 μg/mL) and Citanest Dental Octopressin (prilocaine HCL 30 mg/mL and felypressin 0.54 μg/mL) was administered by injection to mouth region of the patient for pain relief. Both Xylocain Dental Adrenaline and Citanest Dental Octopressin was provided in cartridges containing 1.8 mL of solution comprising active ingredients in said concentrations.

[3] = in vivo; cited from earlier work
[4] = Local anesthesia for a dislocated shoulder (incident described by patient 192293); assay type: in vivo, human; conditions: three attempts of administration, patient's own account
[5] = local anesthesia or nerve blocks; cited from earlier work

Structure (SMILES) | anesthetic effects in redheads [1] | anesthetic effect of one local anesthetic alone [2] | metabolism and excretion [3] | local anesthetic effect / pain relief during dental procedures [2] | local anesthetic effect / pain relief during dental procedures ([2]; listed as Lidocaine) | pain relief [4] | onset of effect [5]
CCN(CC)CCOC(=O)c1ccc(N)cc1 [novocaine] | resistant to the anesthetic effects | – | – | – | – | – | –
CCCNC(C)C(=O)Nc1ccccc1C (stereo not drawn) [prilocaine] | – | did not provide adequate anesthetic effect | rapidly metabolized by the liver and excreted in the urine as o-toluidine | – | – | – | –
CCN(CC)CC(=O)Nc1c(C)cccc1C [lidocaine] | resistant to the anesthetic effects | did not provide adequate anesthetic effect | – | Poor effect | not effective | without obtaining adequate pain relief | within several minutes
